Test results as given in publication PMC6539005, “Half-Wave Potentials and In Vitro Cytotoxic Evaluation of 3-Acylated 2,5-Bis(phenylamino)-1,4-benzoquinones on Cancer Cells” (Molecules, 2019).
Where two headings read alike, the source gives them in different places.

Assays:
[1] = Half-wave potentials by cyclic voltammetry in acetonitrile; assay type: physicochemical; conditions: rt, Pt electrode, vs non-aqueous Ag/Ag+, given as negative of potential; for −E^I 1/2: first one-electron reduction, 0.1 M tetraethylammonium tetrafluoroborate; for −E^II 1/2: second one-electron reduction
Protocol: The members of the 3-acyl-2,5-bis(phenylamino)-1,4-benzoquinone series 2a–q were evaluated for their half-wave potentials (E^I 1/2 and E^II 1/2). They were measured by cyclic voltammetry in acetonitrile at room temperature, using a platinum electrode and 0.1 M tetraethylamoniumtetrafluoroborate as the supporting electrolyte. The voltammograms were run in the potential range from 0.0 to −2.0 V versus non-aqueous Ag/Ag^+.

T24 (bladder) cells = experiment: MTT cytotoxicity assay, T24; assay type: cell-based, human; conditions: 48 h incubation (b12: 72 h), n = 3, read-out: IC50 ± SEM T24
Protocol: (§1) The 3-acyl-2,5-bis(phenylamino)-1,4-benzoquinones 2a–q were evaluated for their in vitro cytotoxic activities against normal human embryonic kidney cells (HEK-293 cells) and two human cancer cell lines (T24 and DU-145 cells) in 72 h drug exposure assays. The cytotoxic activities of the new compounds were measured using conventional microculture tetrazolium reduction assays. The cytotoxic activities are expressed in terms of IC50. Doxorubicin, a clinically used anti-cancer agent, was taken as a positive control.
(§2) Human cancer cell lines T24 (bladder) and DU-145 (prostate), and non-tumor HEK-293 cells were obtained from the American Type Culture Collection (ATCC, Manassas, VA, USA). The cultures were maintained at a density of 1× 10^5 cells/mL and the medium was changed at 48- to 72-h intervals. They were cultured in high-glucose Dulbecco’s modified Eagle medium (Gibco, Grand Island, NY, USA) supplemented with 10% fetal calf serum, penicillin (100 U/mL), and streptomycin (100 μg/mL). All cultures were kept at 37 °C in 95% air/5% CO2 at 100% humidity. Phosphate-buffered saline (PBS) was purchased from Gibco. Cells were incubated at the indicated times at 37 °C, with or without quinones at various concentrations.
(§3) The cytotoxicity of the quinones was assessed by following the reduction of MTT (3-(4,5-Dimethylthiazol-2-yl)-2,5-diphenyltetrazolium bromide) to formazan blue. Cells were seeded into 96-well plates at a density of 10,000 cells/well for 24 h and then incubated for 48 h, with or without the quinone derivatives. Doxorubicin was used as the standard chemotherapeutic agent (positive control). Cells were then washed twice with warm PBS and incubated with MTT (0.5 mg/mL) for 2 hours at 37 °C. Blue formazan crystals were solubilized by adding 100 µL DMSO/well, and the optical density of the coloured solutions was subsequently read at 550 nm. Results are expressed as percentage of MTT reduction, compared to untreated control conditions. The IC50 values were calculated using the GraphPad Prism software (San Diego, CA, USA).

DU-145 (prostate) cells = experiment: MTT cytotoxicity assay, DU-145; assay type: cell-based; conditions: Homo sapiens, 48 h incubation (b12: 72 h), n = 3, read-out: IC50 ± SEM DU-145
Protocol: as §1, §2, §3

HEK-293 kidney cells = experiment: MTT cytotoxicity assay, HEK-293; assay type: cell-based; conditions: Homo sapiens, HEK293, non-tumor cells, 48 h incubation (b12: 72 h), n = 3, read-out: IC50 ± SEM HEK-293
Protocol: as §1, §2, §3

T24 and DU-145 cells = experiment: MTT cytotoxicity assay, both cancer cell lines; assay type: cell-based; conditions: Homo sapiens; mean of T24 and DU-145 IC50
Protocol: as §1, §2, §3

[2] = tested on: human colon adenocarcinoma; set-up: method as in PMID 3746824; conditions: cited from earlier work

−E^I 1/2 [1] [mV]	−E^II 1/2 [1] [mV]	SMILES	IC50 (T24 (bladder) cells; Homo sapiens) [µM]	IC50 (DU-145 (prostate) cells) [µM]	IC50 (HEK-293 kidney cells) [µM]	IC50 (T24 and DU-145 cells) [µM]	IC50 (T24 (bladder) cells) [µM]	in vitro inhibitory activity against human colon adenocarcinoma proliferation [2]
565	1170	CC(=O)C1=C(Nc2ccccc2)C(=O)C=C(Nc2ccccc2)C1=O [2a, 3-Acetyl-2,5-bis(phenylamino)-1,4-benzoquinone]	> 100	96 ± 7.9	> 100	> 98		
560	1140	COc1ccc(C(=O)C2=C(Nc3ccccc3)C(=O)C=C(Nc3ccccc3)C2=O)cc1OC [2e, 3-(3,4-Dimethoxybenzoyl)-2,5-bis(phenylamino)-1,4-benzoquinone]	58.2 ± 7.1	47.7 ± 4.2	> 100	52.9		
680	950	O=C1C=C(Nc2ccc(F)cc2)C(=O)C(C(=O)c2ccco2)=C1Nc1ccc(F)cc1 [2p, 3-(Furan-2-carbonyl)-2,5-bis-[(4-fluorophenyl)amino]-1,4-benzoquinone]	> 100	90 ± 6.4	72.8 ± 7	> 95		
570	870	O=C1C=C(Nc2ccccc2)C(=O)C(C(=O)c2ccco2)=C1Nc1ccccc1 [2g, 3-(Furan-2-carbonyl)-2,5-bis(phenylamino)-1,4-benzoquinone]	40.2 ± 4	39.9 ± 3.6	61.7 ± 4.2	40		
850	1010	COc1cc(NC2=CC(=O)C(Nc3cc(OC)c(OC)c(OC)c3)=C(C(=O)c3cccs3)C2=O)cc(OC)c1OC [2m, 3-(Thiophen-2-carbonyl)-2,5-bis-[(3,4,5-trimethoxyphenyl)amino]-1,4-benzoquinone]	63.2 ± 0.6	48.6 ± 3	30.7 ± 3.1	55.9		
500	1030	O=C1C=C(Nc2ccccc2)C(=O)C(C(=O)c2cccs2)=C1Nc1ccccc1 [2h, 3-(Thiophen-2-carbonyl)-2,5-bis(phenylamino)-1,4-benzoquinone]	75.6 ± 9.1	80.9 ± 9.7	> 100	78.2		
560	1120	COc1cc(C(=O)C2=C(Nc3ccccc3)C(=O)C=C(Nc3ccccc3)C2=O)cc(OC)c1OC [2f, 3-(3,4,5-Trimethoxybenzoyl)-2,5-bis(phenylamino)-1,4-benzoquinone]	51.8 ± 6.2	20.4 ± 2.1	85.8 ± 0.9	36.1		
730	980	O=C1C=C(Nc2ccc(F)cc2)C(=O)C(C(=O)c2cccs2)=C1Nc1ccc(F)cc1 [2q, 3-(Thiophen-2-carbonyl)-2,5-bis-[(4-fluorophenyl)amino]-1,4-benzoquinone]	> 100	> 100	> 100	> 100		
790	930	COc1cc(NC2=CC(=O)C(Nc3cc(OC)c(OC)c(OC)c3)=C(C(=O)c3ccco3)C2=O)cc(OC)c1OC [2l, 3-(Furan-2-carbonyl)-2,5-bis-[(3,4,5-trimethoxyphenyl)amino]-1,4-benzoquinone]	47.1 ± 2	23 ± 2.3	33 ± 4.8	35		
710	860	COc1ccc(C(=O)C2=C(Nc3ccc(F)cc3)C(=O)C=C(Nc3ccc(F)cc3)C2=O)cc1 [2ñ, 3-(4-Methoxybenzoyl)-2,5-bis-[(4-fluorophenyl)amino]-1,4-benzoquinone]	> 100	> 100	> 100	> 100		
800	950	COc1cc(NC2=CC(=O)C(Nc3cc(OC)c(OC)c(OC)c3)=C(C(=O)c3ccccc3)C2=O)cc(OC)c1OC [2i, 3-Benzoyl-2,5-bis-[(3,4,5-trimethoxyphenyl)amino]-1,4-benzoquinone]	> 100	92.9 ± 1.4	> 100	> 96.4		
		COc1cccc2c1C(=O)c1c(O)c3c(c(O)c1C2=O)C[C@@](O)(C(=O)CO)C[C@@H]3O[C@H]1C[C@H](N)[C@H](O)[C@H](C)O1 [DOX, Doxorubicin, reference compound]	0.43	0.93 ± 0.06		0.69	0.46 ± 0.08	
		O=C1C=C(Nc2ccccc2)C(=O)C=C1Nc1ccccc1 [A, 2,5-bis(phenylamino)benzoquinone]						good in vitro inhibitory activity
570	1150	CCCC(=O)C1=C(Nc2ccccc2)C(=O)C=C(Nc2ccccc2)C1=O [2b, 3-Butiryl-2,5-bis(phenylamino)-1,4-benzoquinone]	> 100	92.2 ± 8.7	> 100	> 96.1		
550	920	COc1cc(C(=O)C2=C(Nc3ccc(F)cc3)C(=O)C=C(Nc3ccc(F)cc3)C2=O)ccc1O [2o, 3-(4-Hydroxy-3-methoxybenzoyl)-2,5-bis-[(4-fluorophenyl)amino]-1,4-benzoquinone]	> 100	> 100	> 100	> 100		
610	1010	COc1cc(C(=O)C2=C(Nc3cc(OC)c(OC)c(OC)c3)C(=O)C=C(Nc3cc(OC)c(OC)c(OC)c3)C2=O)ccc1O [2k, 3-(4-Hydroxy-3-methoxybenzoyl)-2,5-bis-[(3,4,5-trimethoxyphenyl)amino]-1,4-benzoquinone]	> 100	45.9 ± 3.2	28.3 ± 1.5	> 72.9		
560	1040	O=C1C=C(Nc2ccc(F)cc2)C(=O)C(C(=O)c2ccccc2)=C1Nc1ccc(F)cc1 [2n, 3-Benzoyl-2,5-bis-[(4-fluorophenyl)amino]-1,4-benzoquinone]	74.5 ± 2.2	> 100	> 100	> 87.2		
740	950	COc1ccc(C(=O)C2=C(Nc3cc(OC)c(OC)c(OC)c3)C(=O)C=C(Nc3cc(OC)c(OC)c(OC)c3)C2=O)cc1 [2j, 3-(4-Methoxybenzoyl)-2,5-bis-[(3,4,5-trimethoxyphenyl)amino]-1,4-benzoquinone]	85.3 ± 1.9	72.4 ± 2.6	56.9 ± 5.2	78.8		
